Experiments:
Zea mays = assay: Drought stress in vivo analysis, efficacy EF from visually scored damage intensity; settings: scored after recovery phase
Protocol: (§1) Seeds of monocotyledonous and dicotyledonous crop plants were sown in sandy loam in wood-fiber or plastic pots, covered with soil or sand and cultivated in a greenhouse under good growth conditions. The trial plants were treated at the early leaf stage (BBCH10-BBCH13). To assure uniform water supply before commencement of stress, the potted plants were supplied with water by dam irrigation prior to substance application. The inventive compounds formulated in the form of wettable powders (WP) were sprayed onto the green parts of the plants as an aqueous suspension at an equivalent water application rate of 600 I/ha with addition of 0.2% wetting agent (e.g. agrotin). Substance application was followed immediately by stress treatment of the plants. For this purpose, the wood-fiber pots were transferred in plastic inserts in order to prevent them from subsequently drying out too quickly. Drought Stress was Induced by Gradual Drying Out Under the Following Conditions: “Day”: 14 hours with illumination at ˜26-30° C. “Night”: 10 hours without illumination at ˜18-20° C. The duration of the respective stress phases was guided mainly by the condition of the stressed control plants. It was ended (by re-irrigating and transfer to a greenhouse with good growth conditions) as soon as irreversible damage was observed on the stressed control plants. The end of the stress phase was followed by an about 4-7-day recovery phase, during which the plants were once again kept under good growth conditions in a greenhouse. The duration of the recovery phase was guided mainly by when the trial plants had attained a state which enabled visual scoring of potential effects, and is therefore variable. Once this juncture was reached, the intensities of damage were scored visually in comparison to untreated, unstressed controls of the same age. The damage intensity was at first assessed in percent. These values were then used to calculate the efficacy of the test compounds by the following formula: [formula] EF: Efficacy DIs: Damage intensity of the stressed control plants DIh: Damage intensity of the stressed plants treated with test compound The values reported in tables A-1 to A-3 below are mean values from at least one trial with at least two repeats. The effects of selected compounds of the general formula (I) under drought stress on various crop plants were measured. BRSNS=Brassica napus ZEAMX=Zea mays TRZAS=Triticum aestivum

Brassica napus [1] = assay: as above; settings: spray 250 g/ha, scored after recovery phase
Protocol: as §1

Triticum aestivum [2] = assay: as above; settings: scored after recovery phase
Protocol: as §1

Brassica napus [3] = assay: Drought stress in vivo analysis Part B, appearance vs stressed control plants in categories; design: key: 0: no positive effect; +: slight positive effect; ++: clear positive effect; +++: strong positive effect
Protocol: (§2) Seeds of monocotyledonous and dicotyledonous crop plants were sown in sandy loam in plastic pots, covered with soil or sand and cultivated in a greenhouse under good growth conditions. The test plants are treated at the early leaf stage (BBCH10-BBCH13). To assure uniform water supply before commencement of stress, the potted plants were supplied with water by dam irrigation prior to substance application. The inventive compounds were first formulated as wettable powders (WP) or dissolved in a solvent mixture. The further dilution was effected with water supplemented with 0.2% wetting agent (e.g. agrotin). The finished spray liquor was sprayed onto the green parts of the plant at an equivalent water application rate of 600 I/ha. Substance application was followed immediately by stress treatment of the plants. Drought Stress was Induced by Gradual Drying Out Under the Following Conditions: “Day”: 14 hours with illumination at […]-30° C. “Night”: 10 hours without illumination at 18-20° C. The duration of the respective stress phases was guided mainly by the condition of the stressed control plants. It was ended (by re-irrigating and transfer to a greenhouse with good growth conditions) as soon as irreversible damage was observed on the stressed control plants. The end of the stress phase was followed by an about 4-7-day recovery phase, during which the plants were once again kept under good growth conditions in a greenhouse. The duration of the recovery phase was guided mainly by when the trial plants had attained a state which enabled visual scoring of potential effects, and was therefore variable. Once this juncture had been reached, the appearance of the plants treated with test substances was recorded in comparison to the stressed control plants by the following categories: [table] In order to rule out any influence on the effects observed by any fungicidal or insecticidal action of the test compounds, it was additionally ensured that the tests proceeded without fungal infection or insect infestation. The values reported in tables B-1 and […] below are mean values of the results from at least three repeats. Effects of selected compounds of the general formula (I) under drought stress according to the following tables B-1 and B-2: BRSNS=Brassica napus ZEAMX=Zea mays TRZAS=Triticum aestivum

Triticum aestivum [4] = assay: as above; design: key: 0: no positive effect; +: slight positive effect; ++: clear positive effect; +++: strong positive effect
Protocol: as §2

COc1cc(OC)nc(CN(C(=O)c2c(C(F)F)nn(C)c2F)N(C)C)n1 [Compound A5-30]
EF [%] (ZEAMX) (Zea mays; spray 25 g/ha): >5%

CN(C)N(Cc1ccccn1)C(=O)c1c(C(F)F)nn(C)c1Cl [Compound A6-21, 5-Chloro-3-(difluoromethyl) —N′,N′,1-trimethyl-N-(pyridin-2-ylmethyl)-1H-pyrazole-4-carbohydrazide]
EF [%] (BRSNS) (Brassica napus [1]): >5%
EF [%] (ZEAMX) (Zea mays; spray 250 g/ha): >5%

CN(C)N(Cc1ccccc1Cl)C(=O)c1ccsc1 [Compound B2-1]
EF [%] (ZEAMX) (Zea mays; spray 25 g/ha): >5%
EF [%] (TRZAS) (Triticum aestivum [2]; spray 250 g/ha): >5%

CN(C)N(Cc1ccccn1)C(=O)c1ccsc1 [Compound B2-21]
EF [%] (ZEAMX) (Zea mays; spray 250 g/ha): >5%
EF [%] (TRZAS) (Triticum aestivum [2]; spray 25 g/ha): >5%

CN(C)N(Cc1ccccc1C#N)C(=O)c1ccsc1 [Compound B2-61]
EF [%] (BRSNS) (Brassica napus [1]): >5%
EF [%] (ZEAMX) (Zea mays; spray 250 g/ha): >5%
EF [%] (TRZAS) (Triticum aestivum [2]; spray 20 g/ha): >5%

CN(C)N(Cc1ccccc1C#N)C(=O)c1ccco1 [Compound C1-61]
EF [%] (ZEAMX) (Zea mays; spray 250 g/ha): >5%

CC(C)c1nnsc1C(=O)N(Cc1ccccc1C#N)N(C)C [Compound F2-61, 4-Isopropyl-N′,N′-dimethyl-N-(2-cyanobenzyl)-1,2,3-thiadiazole-5-carbohydrazide]
Effect (BRSNS) (Brassica napus [3]; spray 250 g/ha): +
Effect (TRZAS) (Triticum aestivum [4]; spray 250 g/ha): +

CN(C)N(Cc1ccccc1Cl)C(=O)c1ccns1 [Compound G8-1]
Effect (BRSNS) (Brassica napus [3]; spray 250 g/ha): +
Effect (TRZAS) (Triticum aestivum [4]; spray 250 g/ha): +

CN(C)N(Cc1ccc(Cl)nc1)C(=O)c1ccns1 [Compound G8-94]
Effect (BRSNS) (Brassica napus [3]; spray 25 g/ha): +
Effect (TRZAS) (Triticum aestivum [4]; spray 25 g/ha): ++

O=C(c1ccns1)N(Cc1cccc(Cl)c1Cl)N1CCCC1 [Compound G9-4]
Effect (BRSNS) (Brassica napus [3]; spray 250 g/ha): ++
Effect (TRZAS) (Triticum aestivum [4]; spray 25 g/ha): ++

O=C(c1ccns1)N(Cc1ccccc1F)N1CCCC1 [Compound G9-11]
Effect (BRSNS) (Brassica napus [3]; spray 250 g/ha): +
Effect (TRZAS) (Triticum aestivum [4]; spray 250 g/ha): +

O=C(c1ccns1)N(Cc1ncc(C(F)(F)F)cc1Cl)N1CCCC1 [Compound G9-36]
Effect (BRSNS) (Brassica napus [3]; spray 250 g/ha): ++
Effect (TRZAS) (Triticum aestivum [4]; spray 25 g/ha): +

CN(C)N(Cc1ccc(Cl)nc1)C(=O)c1cc(OCc2ccccc2)ns1 [Compound G10-94]
Effect (BRSNS) (Brassica napus [3]; spray 250 g/ha): ++
Effect (TRZAS) (Triticum aestivum [4]; spray 25 g/ha): +

Cc1c(OCc2ccccc2)nsc1C(=O)N(Cc1cccc(Cl)c1Cl)N(C)C [Compound G11-4]
Effect (BRSNS) (Brassica napus [3]; spray 250 g/ha): ++
Effect (TRZAS) (Triticum aestivum [4]; spray 250 g/ha): +

Cc1c(OCc2ccccc2)nsc1C(=O)N(Cc1ccc(Cl)nc1)N(C)C [Compound G11-94]
Effect (BRSNS) (Brassica napus [3]; spray 250 g/ha): +
Effect (TRZAS) (Triticum aestivum [4]; spray 250 g/ha): +

CN(C)N(Cc1ccc(Cl)cc1)C(=O)c1cnsn1 [Compound H1-3]
Effect (BRSNS) (Brassica napus [3]; spray 25 g/ha): +
Effect (TRZAS) (Triticum aestivum [4]; spray 25 g/ha): +

CN(C)N(Cc1ccccc1F)C(=O)c1cnsn1 [Compound H1-11]
Effect (BRSNS) (Brassica napus [3]; spray 250 g/ha): +
Effect (TRZAS) (Triticum aestivum [4]; spray 250 g/ha): +

O=C(c1cnsn1)N(Cc1cccc(Cl)c1Cl)N1CCCC1 [Compound H2-4]
Effect (BRSNS) (Brassica napus [3]; spray 250 g/ha): +
Effect (TRZAS) (Triticum aestivum [4]; spray 250 g/ha): +

O=C(c1cnsn1)N(Cc1ccccc1F)N1CCCC1 [Compound H2-11]
Effect (BRSNS) (Brassica napus [3]; spray 25 g/ha): +
Effect (TRZAS) (Triticum aestivum [4]; spray 250 g/ha): +

O=C(c1cnsn1)N(Cc1ccc(Cl)nc1)N1CCCC1 [Compound H2-94]
Effect (BRSNS) (Brassica napus [3]; spray 250 g/ha): +
Effect (TRZAS) (Triticum aestivum [4]; spray 250 g/ha): +

From patent US20180206498A1, “SUBSTITUTED HETEROARYL CARBOXYLIC ACID HYDRAZIDES OR SALTS THEREOF AND USE THEREOF TO INCREASE STRESS TOLERANCE IN PLANTS” (Bayer CropScience Aktiengesellschaft, priority 2015, published 2018)
